Laboratory results published in US7183100B2, “Aconitase” (priority 2003, dated 2007).

Experiments:
[1] = tested on: acnC disrupted strain (PA01*); assay: Growth on various carbon sources; assay type: cell-based, P. aeruginosa; conditions: substance used as carbon source
Description: (§1) When tested for growth on various carbon sources, no difference was observed when glucose, glutamate, citrate, isocitrate, succinate, acetate, pyruvate, butyrate, hexonate, or glyoxalate was used as a carbon source.

[2] = tested on: FRD1; assay: Effect of ibuprofen on growth of FRD1 (absorbance at 600 nm); assay type: cell-based, P. aeruginosa; conditions: Pseudomonas aeruginosa, 2 ml LB cultures, read-out: percent inhibition of growth
Method: Ibuprofen is known to generate propionic acid when metabolized and was thus tested for its ability to inhibit the growth of FRD1. Other propionate-generating compounds include certain α4β1 integrin antagonists described by DuPlantier, A. J., et al., Bioorg. Med. Chem. Let. (2001) 11:2593–2596. Using absorbance at 600 nm as the criterion, growth inhibition was detected at a concentration of 0.5 mg/ml of ibuprofen added to 2 ml LB cultures; the percent inhibition at this level was 19%. Inhibition increased in a dose-dependent manner to 72% at 5 mg/ml, and was similar at 10 mg/ml (73%).

[3] = tested on: PA01, FRD1 and mucoid clinical isolate strains (acnC or acnA disrupted); assay: Growth on propanediol as carbon source; assay type: cell-based, P. aeruginosa; conditions: all strains
Description: (§2) In addition to PA01, an additional mucosal strain, FRD1 with gentamicin resistance was subjected to disruption of the acnC gene, as was a mucoid clinical isolate. For comparison, aconitase A was also similarly disrupted. All of the strains behaved similarly in respect to their ability to grow on propanediol in the presence and absence of propionic acid.

[4] = tested on: FRD1; assay: Effect of propionate on antibiotic susceptibility (antibiotic discs); assay type: cell-based, P. aeruginosa; conditions: 0.2% propionate
Method: (§3) The effect of various concentrations of propionate on the ability of antibiotics to curtail the growth of PA01 or FRD1 was tested. Levels of 0.2% propionate appeared to have no effect on PA01 growth in the presence of the antibiotics amikacin, carbenicillin, ciprofloxacin, tobramycin, and tetracycline. Growth was assured by the diameter of colonies formed in the presence of discs containing amikacin (AN-30), 30 μg, carbenicillin (CB-100), 100 μg, ciprofloxacin (CIP-5), 5 μg, tobramycin (NN-10), 10 μg, or tetracycline (TE-30), 30 μg.

[5] = tested on: PA01; assay: as above; assay type: cell-based, P. aeruginosa; conditions: 0.2% propionate; amikacin, carbenicillin, ciprofloxacin, tobramycin, tetracycline discs
Method: as §3

[6] = tested on: wildtype PA01; assay: Propionate inhibition of growth; assay type: cell-based, P. aeruginosa; conditions: 0.4% propionate
Description: (§4) FRD1 is much more susceptible to propionate inhibition than wildtype PA01. While PA01 is able to grow on 0.4% propionate, inhibition of FRD1 growth occurs at levels of 0.1% propionate and inhibition is complete as low as 0.2% propionate in the medium.

[7] = tested on: FRD1; assay: Propionate inhibition of growth; assay type: cell-based, P. aeruginosa; conditions: in the medium
Description: as §4

[8] = tested on: PA01*; assay: Growth in TSBD plus 100 μM iron medium with propionate; assay type: cell-based, P. aeruginosa; conditions: 0.05% propionate, with and without 50 mM glutamate, FIG. 3
[9] = tested on: PA01; assay: Attachment of cells to plastic tubes (absorbance at 570 nm); assay type: cell-based, P. aeruginosa; conditions: compared with FRD1
Method: (§5) As mucoid production is necessary for attachment, the effect on mucoid production of addition of propionate can be tested by assessing the level of attachment of the cells to plastic tubes. This was measured as the absorbance at 570 nm of plastic tubes.

[10] = tested on: FRD1 cells; assay: as above; assay type: cell-based, P. aeruginosa; conditions: as low as 0.1% propionate
Method: as §5

[11] = tested on: PA01*; assay: Growth in LB medium with 0.4% propionate; assay type: cell-based, P. aeruginosa
Method: (§6) The effect of the addition of 0.4% propionate to LB medium containing wildtype PA01, PA01*, and the more sensitive mucoid strain FRD1, was also tested.

[12] = tested on: wildtype PA01; assay: Growth in LB medium with 0.4% propionate; assay type: cell-based, P. aeruginosa
Method: as §6

[13] = tested on: FRD1; assay: Growth in LB medium with 0.4% propionate; assay type: cell-based, P. aeruginosa
Method: as §6

[14] = tested on: mucoid clinical isolates; assay: Effect of propionate on growth of mucoid clinical isolates; assay type: cell-based; conditions: low concentrations of propionate, FIG. 4, vs non-mucoid BH1 and revertant BAB
[15] = tested on: PA01 wildtype; assay: Growth on various carbon sources; assay type: cell-based, P. aeruginosa; conditions: substance used as carbon source
Description: as §1

[16] = tested on: FRD1 with disrupted aconitase C gene; assay: Growth on propanediol with added propionic acid; assay type: cell-based, P. aeruginosa; conditions: propanediol medium
Description: as §2

[17] = tested on: PA01 with disrupted aconitase C gene; assay: Growth on propanediol with added propionic acid; assay type: cell-based, P. aeruginosa; conditions: propanediol medium
Description: as §2

[18] = tested on: FRD1; assay: Reversal of propionate growth inhibition by TCA intermediates in M9 minimal media; assay type: cell-based, P. aeruginosa; conditions: 0.4% propionate
Method: This effect was tested by supplementing M9 minimal media with various TCA cycle components in the presence of 0.4% propionate.

O=C(O)CC(O)(CC(=O)O)C(=O)O [citrate]
difference in growth between wildtype and acnC disrupted strain [1]: no difference

CC(C)Cc1ccc(C(C)C(=O)O)cc1 (stereo not drawn) [ibuprofen, Ibuprofen]
inhibition at 500 µg/mL ([2]; 0.5 mg/ml): 19%
inhibition at 5000 µg/mL ([2]; 5 mg/ml): 72%
inhibition at 10000 µg/mL ([2]; 10 mg/ml): 73%

CCCCCC(=O)O [hexanoate, hexanoic acid]
difference in growth between wildtype and acnC disrupted strain [1]: no difference

OCCCO [1,3-propanediol]
ability to grow on carbon source [3]: less able to grow

CC(O)CO (stereo not drawn) [1,2-propanediol]
ability to grow on carbon source [3]: able to grow

CCC(=O)O [propionate, propionic acid]
effect on growth inhibition by antibiotics ([4]; CB-100 and CIP-5 discs): diminish the effect
effect on efficiency of antibiotics ([4]; remaining antibiotics (amikacin, tobramycin, tetracycline)): little, if any, effect
effect on growth in the presence of antibiotics [5]: no effect
growth on propionate [6]: able to grow
propionate level at which inhibition of growth is complete [7]: 0.2%
propionate level at which inhibition of growth occurs [7]: 0.1%
growth as compared to wildtype [8]: growth is diminished
effect on attachment to plastic tubes [9]: less dramatic
effect on attachment to plastic tubes [10]: diminish significantly
response of growth [11]: diminished growth
response of growth [12]: does not respond
response of growth [13]: diminished growth
growth inhibition [14]: substantial growth inhibition
growth of acnC disrupted strain on carbon source [1]: did not grow
growth of wildtype on carbon source [15]: grow well
ability to grow after addition of propionic acid [16]: completely abolished
ability to grow after addition of propionic acid [17]: completely abolished

O=CC(=O)O [glyoxalate]
difference in growth between wildtype and acnC disrupted strain [1]: no difference

O=C(O)CC(O)C(=O)O (stereo not drawn) [malate]
reversal of negative effects of propionate on growth [18]: successful

O=C(O)CCC(=O)O [succinate]
difference in growth between wildtype and acnC disrupted strain [1]: no difference

CCCCC(=O)O [pentanoate, pentanoic acid]
growth of acnC disrupted strain on carbon source [1]: did not grow
growth of wildtype on carbon source [15]: grow well

CC(=O)O [acetate]
reversal of negative effects of propionate on growth [18]: successful
difference in growth between wildtype and acnC disrupted strain [1]: no difference

N[C@@H](CCC(=O)O)C(=O)O [glutamate]
reversal of negative effects of propionate on growth [18]: successful
difference in growth between wildtype and acnC disrupted strain [1]: no difference
